From patent publication US20230227917A1, “PREDICTING RESPONSE TO PD-1 AXIS INHIBITORS” (Hoffmann-La Roche Inc., priority 2020, published 2023)

Experiments:
Type in all cases: in vivo, human
[1] = test system: patients with locally advanced or metastatic Non-Small Cell Lung Cancer; test: Survival by stem cell score, Phase III trial OAK (NCT02008227), Atezolizumab vs Docetaxel; conditions: for HR overall survival, score low vs high: within treatment
Source text: We hypothesized that patients with a low abundance of stem cell maintenance-related cancer cells may respond to PD-L1 blockade leading to beneficial effect in patients who received the treatment. We analyzed 739 patients with non-small cell lung cancer who received Atezolizumab (MPDL3280A, n=358) and Docetaxel (n=381) in a Phase III clinical trial (NCT02008227, OAK) (https://clinicaltrials.gov/ct2/show/NCT02008227). This study was sponsored by Genentech Inc., a member of the Roche Group, which provided the study drug.
The protocol and its amendments were approved by the relevant institutional review boards or ethics committees, and all participants provided written informed consent. This study was conducted in accordance with the Declaration of Helsinki and International Conference on Harmonization Guidelines for Good Clinical Practice. Tumor specimens at baseline were archived and taken for gene expression profiling performed by RNA Sequencing (RNA-Seq). In total, 144 human stem cell related genes derived from Gene Ontology were selected and further processed resulting in a selected a list of 4 genes consisting of ASPM, CNOT3, LRPS, and PBX1, which are associated with abundance of stem cell maintenance-related cancer cells. The log2 CPM expression values of each selected gene across the whole cohort were divided at medium expression level for the higher expression ones (+) and lower/no expression ones (−). Using in-house R scripts, the two defined subgroups were plotted against the Kaplan-Meier survival curves.
(§1) As several genes linked to stem cell maintenance-related cancer cells were associated with the survival advantages, we investigated the impact of multiple genes involved in stem cell maintenance-related cancer cells by defining a cumulative cancer stem cell gene score reflecting the cumulative expression of these marker genes. Each gene's expression is first standardized by a z-score:
(§2) where μ and μ are estimated in the entire cohort or in the selected subgroups. After the standardization step, these standardized z-score values are averaged across genes within each patient. The OAK cohort was corrected for the sex of patient, age, histolog as well as PD-L1 status. […] In addition, we also identified an advantage in progression-free survival.

[2] = test system: patients with locally advanced or metastatic Non-Small Cell Lung Cancer; test: Survival by stem cell score, Phase II trial BIRCH (NCT02031458), Atezolizumab
Source text: (§3) We hypothesized that patients with a low abundance of stem cell maintenance-related cancer cells may respond to PD-L1 blockade leading to beneficial effect in patients who received the treatment. We analyzed 597 patients with non-small cell lung cancer who received Atezolizumab in a Phase II clinical trial (NCT02031458, BIRCH) (https://clinicaltrials.gov/ct2/show/NCT02031458). This study was sponsored by Genentech Inc., a member of the Roche Group, which provided the study drug. The protocol and its amendments were approved by the relevant institutional review boards or ethics committees, and all participants provided written informed consent. This study was conducted in accordance with the Declaration of Helsinki and International Conference on Harmonization Guidelines for Good Clinical Practice.
(§4) Tumor specimens at baseline were archived and taken for gene expression profiling performed by RNA Sequencing (RNA-Seq).). In total, 144 human stem cell related genes derived from Gene Ontology were selected and further processed resulting in a selected a list of 4 genes consisting of ASPM, CNOT3, LRPS, and PBX1, which are associated with abundance of stem cell maintenance-related cancer cells. The log2 CPM expression values of each selected gene across the whole cohort were divided at medium expression level for the higher expression ones (+) and lower/no expression ones (−). Using in-house R scripts, the two defined subgroups were plotted against the Kaplan-Meier survival curves. […] Table 2 summarizes the median survival as well as HR per single gene used for the stem cell maintenance-related cancer cells signature.
as §1
as §2, with “BIRCH” for “OAK”, “age” for “age, histolog”, “smoking” for “PD-L1”

[3] = test system: patients with locally advanced or metastatic Urothelial Bladder Cancer; test: Survival by stem cell score, Phase III trial IMvigor211 (NCT02302807), Atezolizumab vs standard of care
Source text: as §3, with “750” for “597”, “locally advanced or metastatic urothelial bladder” for “non-small cell lung”, “Atezolizumab (n=369), Paclitaxel (n=123), Vinflunine (n=194) or Docetaxel (n=41)” for “Atezolizumab”, “III” for “II”, “(NCT02302807, IMvigor 211) (https://clinicaltrials.gov/ct2/show/NCT02302807).” for “(NCT02031458, BIRCH) (https://clinicaltrials.gov/ct2/show/NCT02031458).”
as §4, with “Sequencing (RNA-Seq).” for “Sequencing (RNA-Seq).).”, “Table 3” for “Table 2”
as §1
as §2, with “IMvigor211” for “OAK”, “age” for “age, histolog”, “smoking” for “PD-L1”, “adavantage” for “advantage”

[4] = cumulative cancer stem cell score (ASPM, CNOT3, LRP5, PBX1) low
[5] = cumulative cancer stem cell score high
[6] = cumulative cancer stem cell score
[7] = gene ASPM, Stem cell score high
[8] = gene CNOT3, Stem cell score high
[9] = gene CNOT3, Stem cell score low
[10] = gene LRP5, Stem cell score high
[11] = gene PBX1, Stem cell score high
[12] = cumulative cancer stem cell score low

CC(=O)O[C@@]12CO[C@@H]1C[C@H](O)[C@@]1(C)C(=O)[C@H](O)C3=C(C)[C@@H](OC(=O)[C@H](O)[C@@H](NC(=O)OC(C)(C)C)c4ccccc4)C[C@@](O)([C@@H](OC(=O)c4ccccc4)[C@H]21)C3(C)C [Docetaxel] was tested, and the median overall survival [1, 4] was 334 days, the median overall survival [1, 5] was 282 days and the “HR overall survival, score low vs high” value [1, 6] was 0.76. The “Median survival” value [1, 7] was 270 days, the “Median survival” value ([1]; gene ASPM, Stem cell score low) was 365 days and the “Median survival” value [1, 8] was 299 days. The “Median survival” value [1, 9] was 339 days, the “Median survival” value [1, 10] was 320 days and the “Median survival” value ([1]; gene LRP5, Stem cell score low) was 312 days. The “Median survival” value [1, 11] was 262 days and the “Median survival” value ([1]; gene PBX1, Stem cell score low) was 356 days.
atezolizumab was tested, and the “HR progression-free survival, score low vs high” value [1, 6] was 0.69, the median overall survival [1, 4] was 492 days and the median overall survival [1, 5] was about 257 days. The median progression-free survival [1, 5] was about 51 days, the median progression-free survival [1, 12] was about 86 days and the “HR overall survival, score low vs high” value [1, 6] was 0.67. The “HR overall survival, predictive effect for Atezolizumab” value ([1]; cumulative stem cell score low group, Atezolizumab vs Docetaxel) was 0.72, the “Median survival” value [1, 7] was 256 days and the “Median survival” value ([1]; gene ASPM, Stem cell score low) was 467 days. For the same molecule, the “HR (Atezo vs SoC)” value ([1]; gene ASPM, Stem cell score low, Atezolizumab vs Docetaxel) was “HR: 0.84”, the “HR (low vs high)” value ([1]; gene ASPM, score low vs high within treatment) was “HR: 0.65” and the “Median survival” value [1, 8] was 337 days. For the same molecule, the “Median survival” value [1, 9] was 433 days, the “HR (Atezo vs SoC)” value ([1]; gene CNOT3, Stem cell score low, Atezolizumab vs Docetaxel) was “HR: 0.83” and the “HR (low vs high)” value ([1]; gene CNOT3, score low vs high within treatment) was “HR: 0.89”. The “Median survival” value [1, 10] was 384 days, the “Median survival” value ([1]; gene LRP5, Stem cell score low) was 405 days and the “HR (Atezo vs SoC)” value ([1]; gene LRP5, Stem cell score low, Atezolizumab vs Docetaxel) was “HR: 0.83”. For the same molecule, the “HR (low vs high)” value ([1]; gene LRP5, score low vs high within treatment) was “HR: 0.97”, the “Median survival” value [1, 11] was 329 days and the “Median survival” value ([1]; gene PBX1, Stem cell score low) was 456 days. For the same molecule, the “HR (Atezo vs SoC)” value ([1]; gene PBX1, Stem cell score low, Atezolizumab vs Docetaxel) was “HR: 0.92”, the “HR (low vs high)” value ([1]; gene PBX1, score low vs high within treatment) was “HR: 0.89” and the “HR overall survival, score low vs high” value [2, 6] was 0.77. The “HR progression-free survival, score low vs high” value [2, 6] was 0.74, the median overall survival [2, 5] was about 437 days and the median progression-free survival [2, 5] was about 89 days. For the same molecule, the median overall survival [2, 12] was about 583 days, the median progression-free survival [2, 12] was about 127 days and the “HR (low vs high)” value ([2]; gene ASPM) was “HR: 0.78”. The “Median survival” value [2, 7] was 457 days, the “Median survival” value ([2]; gene ASPM, Stem cell score low) was 566 days and the “HR (low vs high)” value ([2]; gene CNOT3) was “HR: 0.88”. The “Median survival” value [2, 8] was 482 days, the “Median survival” value [2, 9] was 510 days and the “HR (low vs high)” value ([2]; gene LRP5) was “HR: 1.02”. The “Median survival” value [2, 10] was 498 days, the “Median survival” value ([2]; gene LRP5, Stem cell score low) was 471 days and the “HR (low vs high)” value ([2]; gene PBX1) was “HR: 1.02”. For the same molecule, the “Median survival” value [2, 11] was 510 days, the “Median survival” value ([2]; gene PBX1, Stem cell score low) was 471 days and the “HR overall survival, score low vs high” value [3, 6] was 0.64. The “HR progression-free survival, score low vs high” value [3, 6] was 0.69, the median overall survival [3, 5] was about 211 days and the median progression-free survival [3, 5] was about 63 days. The median overall survival [3, 12] was about 357 days, the median progression-free survival [3, 12] was about 66 days and the “HR overall survival, predictive effect for Atezolizumab” value ([3]; cumulative stem cell score low groups, Atezolizumab vs standard of care) was 0.70. For the same molecule, the “HR (low vs high)” value ([3]; gene ASPM) was “HR: 1.05”, the “Median survival” value [3, 7] was 271 days and the “HR (Atezo vs SoC)” value ([3]; gene ASPM, Stem cell score low) was “HR: 0.93”. For the same molecule, the “Median survival” value ([3]; gene ASPM, Stem cell score low) was 257 days, the “HR (low vs high)” value ([3]; gene CNOT3) was “HR: 0.85” and the “Median survival” value [3, 8] was 242 days. The “HR (Atezo vs SoC)” value [3, 9] was “HR: 0.83”, the “Median survival” value [3, 9] was 297 days and the “HR (low vs high)” value ([3]; gene LRP5) was “HR: 0.76”. For the same molecule, the “Median survival” value [3, 10] was 241 days, the “HR (Atezo vs SoC)” value ([3]; gene LRP5, Stem cell score low) was “HR: 0.74” and the “Median survival” value ([3]; gene LRP5, Stem cell score low) was 298 days. For the same molecule, the “HR (low vs high)” value ([3]; gene PBX1) was “HR: 0.74”, the “Median survival” value [3, 11] was 247 days and the “HR (Atezo vs SoC)” value ([3]; gene PBX1, Stem cell score low) was “HR: 0.67”. For the same molecule, the “Median survival” value ([3]; gene PBX1, Stem cell score low) was 279 days.
